Source: the NIST ThermoML archive (doi:10.1016/j.fluid.2017.09.005)
Numbers after ± are expanded uncertainties.

Assay: xn = mol fraction of the nth substance listed
Conditions: Liquid; for viscosity: Capillary tube (Ostwald / Ubbelohde) method; for mass density: Vibrating tube method

CCCO [propan-1-ol] + O
viscosity (523.2 K, 20000 kPa, x1 = 0.1): 0.131 ± 0.004 mPa·s | viscosity (523.2 K, 20000 kPa, x1 = 0.2): 0.129 ± 0.004 mPa·s | viscosity (523.2 K, 20000 kPa, x1 = 0.3): 0.122 ± 0.004 mPa·s | viscosity (523.2 K, 20000 kPa, x1 = 0.4): 0.121 ± 0.004 mPa·s | viscosity (523.2 K, 20000 kPa, x1 = 0.6): 0.117 ± 0.004 mPa·s | viscosity (523.2 K, 20000 kPa, x1 = 0.8): 0.114 ± 0.004 mPa·s | viscosity (523.2 K, 20000 kPa, x1 = 1): 0.115 ± 0.003 mPa·s | mass density (523.2 K, 20000 kPa, x1 = 0.1): 733.5 ± 3.2 kg/m3 | mass density (523.2 K, 20000 kPa, x1 = 0.2): 682.3 ± 3.4 kg/m3 | mass density (523.2 K, 20000 kPa, x1 = 0.3): 648 ± 3.5 kg/m3 | mass density (523.2 K, 20000 kPa, x1 = 0.4): 624.3 ± 3.3 kg/m3 | mass density (523.2 K, 20000 kPa, x1 = 0.6): 596 ± 3.2 kg/m3 | mass density (523.2 K, 20000 kPa, x1 = 0.8): 582.1 ± 3 kg/m3 | mass density (523.2 K, 20000 kPa, x1 = 1): 575.3 ± 2.9 kg/m3 | viscosity (523.2 K, 30000 kPa, x1 = 0.1): 0.138 ± 0.004 mPa·s | viscosity (523.2 K, 30000 kPa, x1 = 0.2): 0.139 ± 0.004 mPa·s | viscosity (523.2 K, 30000 kPa, x1 = 0.3): 0.134 ± 0.004 mPa·s | viscosity (523.2 K, 30000 kPa, x1 = 0.4): 0.134 ± 0.004 mPa·s | viscosity (523.2 K, 30000 kPa, x1 = 0.6): 0.132 ± 0.004 mPa·s | viscosity (523.2 K, 30000 kPa, x1 = 0.8): 0.13 ± 0.004 mPa·s | viscosity (523.2 K, 30000 kPa, x1 = 1): 0.134 ± 0.004 mPa·s | mass density (523.2 K, 30000 kPa, x1 = 0.1): 749.8 ± 3 kg/m3 | mass density (523.2 K, 30000 kPa, x1 = 0.2): 702.6 ± 3 kg/m3 | mass density (523.2 K, 30000 kPa, x1 = 0.3): 672.3 ± 3 kg/m3 | mass density (523.2 K, 30000 kPa, x1 = 0.4): 651 ± 2.9 kg/m3 | mass density (523.2 K, 30000 kPa, x1 = 0.6): 626.2 ± 2.9 kg/m3 | mass density (523.2 K, 30000 kPa, x1 = 0.8): 613.3 ± 2.8 kg/m3 | mass density (523.2 K, 30000 kPa, x1 = 1): 606.8 ± 2.7 kg/m3 | viscosity (523.2 K, 40000 kPa, x1 = 0.1): 0.138 ± 0.004 mPa·s | viscosity (523.2 K, 40000 kPa, x1 = 0.2): 0.146 ± 0.004 mPa·s | viscosity (523.2 K, 40000 kPa, x1 = 0.3): 0.145 ± 0.004 mPa·s | viscosity (523.2 K, 40000 kPa, x1 = 0.4): 0.146 ± 0.004 mPa·s | viscosity (523.2 K, 40000 kPa, x1 = 0.6): 0.146 ± 0.004 mPa·s | viscosity (523.2 K, 40000 kPa, x1 = 0.8): 0.146 ± 0.004 mPa·s | viscosity (523.2 K, 40000 kPa, x1 = 1): 0.15 ± 0.004 mPa·s | mass density (523.2 K, 40000 kPa, x1 = 0.1): 761.7 ± 3 kg/m3 | mass density (523.2 K, 40000 kPa, x1 = 0.2): 718.6 ± 2.8 kg/m3 | mass density (523.2 K, 40000 kPa, x1 = 0.3): 689.7 ± 3 kg/m3 | mass density (523.2 K, 40000 kPa, x1 = 0.4): 670.3 ± 2.9 kg/m3 | mass density (523.2 K, 40000 kPa, x1 = 0.6): 647.5 ± 2.9 kg/m3 | mass density (523.2 K, 40000 kPa, x1 = 0.8): 635.6 ± 2.7 kg/m3 | mass density (523.2 K, 40000 kPa, x1 = 1): 629.3 ± 2.7 kg/m3 | viscosity (573.2 K, 20000 kPa, x1 = 0.1): 0.088 ± 0.003 mPa·s | viscosity (573.2 K, 20000 kPa, x1 = 0.2): 0.082 ± 0.003 mPa·s | viscosity (573.2 K, 20000 kPa, x1 = 0.3): 0.076 ± 0.003 mPa·s | viscosity (573.2 K, 20000 kPa, x1 = 0.4): 0.073 ± 0.003 mPa·s | viscosity (573.2 K, 20000 kPa, x1 = 0.6): 0.07 ± 0.003 mPa·s | viscosity (573.2 K, 20000 kPa, x1 = 0.8): 0.071 ± 0.003 mPa·s | viscosity (573.2 K, 20000 kPa, x1 = 1): 0.073 ± 0.002 mPa·s | mass density (573.2 K, 20000 kPa, x1 = 0.1): 637.8 ± 4.4 kg/m3 | mass density (573.2 K, 20000 kPa, x1 = 0.2): 576.7 ± 4.8 kg/m3 | mass density (573.2 K, 20000 kPa, x1 = 0.3): 538 ± 4.7 kg/m3 | mass density (573.2 K, 20000 kPa, x1 = 0.4): 513.7 ± 4.4 kg/m3 | mass density (573.2 K, 20000 kPa, x1 = 0.6): 492.5 ± 3.9 kg/m3 | mass density (573.2 K, 20000 kPa, x1 = 0.8): 489.6 ± 3.7 kg/m3 | mass density (573.2 K, 20000 kPa, x1 = 1): 494.3 ± 3.5 kg/m3 | viscosity (573.2 K, 30000 kPa, x1 = 0.1): 0.092 ± 0.003 mPa·s | viscosity (573.2 K, 30000 kPa, x1 = 0.2): 0.09 ± 0.003 mPa·s | viscosity (573.2 K, 30000 kPa, x1 = 0.3): 0.085 ± 0.003 mPa·s | viscosity (573.2 K, 30000 kPa, x1 = 0.4): 0.084 ± 0.003 mPa·s | viscosity (573.2 K, 30000 kPa, x1 = 0.6): 0.082 ± 0.003 mPa·s | viscosity (573.2 K, 30000 kPa, x1 = 0.8): 0.083 ± 0.003 mPa·s | viscosity (573.2 K, 30000 kPa, x1 = 1): 0.085 ± 0.003 mPa·s | mass density (573.2 K, 30000 kPa, x1 = 0.1): 664.2 ± 3.7 kg/m3 | mass density (573.2 K, 30000 kPa, x1 = 0.2): 614.7 ± 3.7 kg/m3 | mass density (573.2 K, 30000 kPa, x1 = 0.3): 583 ± 3.7 kg/m3 | mass density (573.2 K, 30000 kPa, x1 = 0.4): 564.2 ± 3.6 kg/m3 | mass density (573.2 K, 30000 kPa, x1 = 0.6): 545.3 ± 3.5 kg/m3 | mass density (573.2 K, 30000 kPa, x1 = 0.8): 540.2 ± 3.4 kg/m3 | mass density (573.2 K, 30000 kPa, x1 = 1): 540.6 ± 3.3 kg/m3 | viscosity (573.2 K, 40000 kPa, x1 = 0.1): 0.098 ± 0.003 mPa·s | viscosity (573.2 K, 40000 kPa, x1 = 0.2): 0.098 ± 0.003 mPa·s | viscosity (573.2 K, 40000 kPa, x1 = 0.3): 0.096 ± 0.003 mPa·s | viscosity (573.2 K, 40000 kPa, x1 = 0.4): 0.094 ± 0.003 mPa·s | viscosity (573.2 K, 40000 kPa, x1 = 0.6): 0.095 ± 0.003 mPa·s | viscosity (573.2 K, 40000 kPa, x1 = 0.8): 0.097 ± 0.003 mPa·s | viscosity (573.2 K, 40000 kPa, x1 = 1): 0.098 ± 0.003 mPa·s | mass density (573.2 K, 40000 kPa, x1 = 0.1): 685.8 ± 3.5 kg/m3 | mass density (573.2 K, 40000 kPa, x1 = 0.2): 640.9 ± 3.5 kg/m3 | mass density (573.2 K, 40000 kPa, x1 = 0.3): 613.2 ± 3.5 kg/m3 | mass density (573.2 K, 40000 kPa, x1 = 0.4): 596.3 ± 3.5 kg/m3 | mass density (573.2 K, 40000 kPa, x1 = 0.6): 578.8 ± 3.4 kg/m3 | mass density (573.2 K, 40000 kPa, x1 = 0.8): 572.6 ± 3.3 kg/m3 | mass density (573.2 K, 40000 kPa, x1 = 1): 572.1 ± 3.3 kg/m3 | viscosity (618.2 K, 20000 kPa, x1 = 0.1): 0.056 ± 0.002 mPa·s | viscosity (618.2 K, 20000 kPa, x1 = 0.2): 0.042 ± 0.002 mPa·s | viscosity (618.2 K, 20000 kPa, x1 = 0.3): 0.04 ± 0.002 mPa·s | viscosity (618.2 K, 20000 kPa, x1 = 0.4): 0.042 ± 0.002 mPa·s | viscosity (618.2 K, 20000 kPa, x1 = 0.6): 0.047 ± 0.002 mPa·s | viscosity (618.2 K, 20000 kPa, x1 = 0.8): 0.052 ± 0.002 mPa·s | viscosity (618.2 K, 20000 kPa, x1 = 1): 0.057 ± 0.002 mPa·s | mass density (618.2 K, 20000 kPa, x1 = 0.1): 430.7 ± 5.6 kg/m3 | mass density (618.2 K, 20000 kPa, x1 = 0.2): 324.4 ± 6.4 kg/m3 | mass density (618.2 K, 20000 kPa, x1 = 0.3): 311.8 ± 6 kg/m3 | mass density (618.2 K, 20000 kPa, x1 = 0.4): 325.6 ± 5.5 kg/m3 | mass density (618.2 K, 20000 kPa, x1 = 0.6): 360.4 ± 4.7 kg/m3 | mass density (618.2 K, 20000 kPa, x1 = 0.8): 393.7 ± 4.1 kg/m3 | mass density (618.2 K, 20000 kPa, x1 = 1): 419.4 ± 3.9 kg/m3 | viscosity (618.2 K, 30000 kPa, x1 = 0.1): 0.077 ± 0.002 mPa·s | viscosity (618.2 K, 30000 kPa, x1 = 0.2): 0.07 ± 0.002 mPa·s | viscosity (618.2 K, 30000 kPa, x1 = 0.3): 0.066 ± 0.002 mPa·s | viscosity (618.2 K, 30000 kPa, x1 = 0.4): 0.065 ± 0.002 mPa·s | viscosity (618.2 K, 30000 kPa, x1 = 0.6): 0.066 ± 0.002 mPa·s | viscosity (618.2 K, 30000 kPa, x1 = 0.8): 0.07 ± 0.002 mPa·s | viscosity (618.2 K, 30000 kPa, x1 = 1): 0.073 ± 0.002 mPa·s | mass density (618.2 K, 30000 kPa, x1 = 0.1): 557.7 ± 4.5 kg/m3 | mass density (618.2 K, 30000 kPa, x1 = 0.2): 504.6 ± 4.6 kg/m3 | mass density (618.2 K, 30000 kPa, x1 = 0.3): 479.5 ± 4.5 kg/m3 | mass density (618.2 K, 30000 kPa, x1 = 0.4): 469.8 ± 4.4 kg/m3 | mass density (618.2 K, 30000 kPa, x1 = 0.6): 469.3 ± 4.1 kg/m3 | mass density (618.2 K, 30000 kPa, x1 = 0.8): 480.8 ± 3.9 kg/m3 | mass density (618.2 K, 30000 kPa, x1 = 1): 491.7 ± 3.8 kg/m3 | viscosity (618.2 K, 40000 kPa, x1 = 0.1): 0.086 ± 0.002 mPa·s | viscosity (618.2 K, 40000 kPa, x1 = 0.2): 0.082 ± 0.002 mPa·s | viscosity (618.2 K, 40000 kPa, x1 = 0.3): 0.079 ± 0.002 mPa·s | viscosity (618.2 K, 40000 kPa, x1 = 0.4): 0.079 ± 0.002 mPa·s | viscosity (618.2 K, 40000 kPa, x1 = 0.6): 0.08 ± 0.002 mPa·s | viscosity (618.2 K, 40000 kPa, x1 = 0.8): 0.084 ± 0.002 mPa·s | viscosity (618.2 K, 40000 kPa, x1 = 1): 0.087 ± 0.002 mPa·s | mass density (618.2 K, 40000 kPa, x1 = 0.1): 603.6 ± 4 kg/m3 | mass density (618.2 K, 40000 kPa, x1 = 0.2): 561.4 ± 4.2 kg/m3 | mass density (618.2 K, 40000 kPa, x1 = 0.3): 539.6 ± 3.9 kg/m3 | mass density (618.2 K, 40000 kPa, x1 = 0.4): 529 ± 3.9 kg/m3 | mass density (618.2 K, 40000 kPa, x1 = 0.6): 523.2 ± 3.8 kg/m3 | mass density (618.2 K, 40000 kPa, x1 = 0.8): 528 ± 3.8 kg/m3 | mass density (618.2 K, 40000 kPa, x1 = 1): 534.1 ± 3.7 kg/m3
